Structures can show the parent of a compound that is named as a salt.
System: mice
Test: SmartCube in vivo neuropharmacological behavioral assay
Conditions: for minimal effective dose: Mus musculus, ip, 0.25 h, dose having 50% or more total activity in SmartCube, i.p., read-out: MED (minimal effective dose); for AD: antidepressant (percent probability) / AG: analgesic (percent probability) / AP: antipsychotic (percent probability) / AX: anxiolytic (percent probability) / CE: cognitive enhancer (percent probability) / HA: hallucinogenic (percent probability) / MS: mood stabilizer (percent probability) / PS (percent probability) / SD: sedative hypnotic (percent probability) / SE: side effects (percent probability) / UN: uncharacterized CNS activity (percent probability) / XG: anxiogenic (percent probability): SmartCube, i.p. 15 min before test, result at the MED
How it was run: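 Mice dosed i.p. in NMP (Pharmasolve) 15 min before automated video behavioral testing at several doses (e.g., 0.3-30 mpk). Signatures compared to reference drug classes giving per-class probabilities (0-100); MED is the lowest dose with ≥50% total activity.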

| Compound | minimal effective dose [mg/kg] | AD: antidepressant (percent probability) | AG: analgesic (percent probability) | AP: antipsychotic (percent probability) | AX: anxiolytic (percent probability) | CE: cognitive enhancer (percent probability) | HA: hallucinogenic (percent probability) | MS: mood stabilizer (percent probability) | PS (percent probability) | SD: sedative hypnotic (percent probability) | SE: side effects (percent probability) | UN: uncharacterized CNS activity (percent probability) | XG: anxiogenic (percent probability) |
| --- | --- | --- | --- | --- | --- | --- | --- | --- | --- | --- | --- | --- | --- |
| FC1CCC2NC1c1ccccc12 (centres unmarked) [Compound 30, 9-Fluoro-12-azatricyclo[6.3.1.0^2,7]dodeca-2,4,6-triene hydrochloride] | > 30 | + (LOQ ≤ X < 5%) | + (LOQ ≤ X < 5%) | + (LOQ ≤ X < 5%) | ++ (5% ≤ X < 25%) | + (LOQ ≤ X < 5%) | + (LOQ ≤ X < 5%) | + (LOQ ≤ X < 5%) | + (LOQ ≤ X < 5%) | + (LOQ ≤ X < 5%) | + (LOQ ≤ X < 5%) | + (LOQ ≤ X < 5%) | + (LOQ ≤ X < 5%) |
| CC[C@H](C)N1C2CCCC1c1ccccc12 [Compound 26, 12-[(2S)-Butan-2-yl]-12-azatricyclo[6.3.1.0^2,7]dodeca-2,4,6-triene hydrochloride] | 1 to 10 | ++++ (50% ≤ X < 100%) | + (LOQ ≤ X < 5%) | + (LOQ ≤ X < 5%) | + (LOQ ≤ X < 5%) | + (LOQ ≤ X < 5%) | ++ (5% ≤ X < 25%) | + (LOQ ≤ X < 5%) | ++ (5% ≤ X < 25%) | + (LOQ ≤ X < 5%) | + (LOQ ≤ X < 5%) | + (LOQ ≤ X < 5%) | + (LOQ ≤ X < 5%) |

Source: patent publication US20230116114A1, “COMPOUNDS AND COMPOSITIONS FOR TREATING CNS DISORDERS” (Blue Oak Pharmaceuticals, Inc., priority 2020, published 2023)
